Assay results: patent US10563263B2, “Genetic polymorphisms associated with statin response and cardiovascular diseases, methods of detection and uses thereof” (CELERA CORPORATION, priority 2010, dated 2020)

Tested on: CHD or CVD
Assay: WOSCOPS: SNP by pravastatin treatment interaction, logistic regression (synergy index), cohort source; End-point (CHD or CVD) of the marker not given
Assay type: in vivo, human

CC[C@H](C)C(=O)O[C@H]1C[C@H](O)C=C2C=C[C@H](C)[C@H](CC[C@@H](O)C[C@@H](O)CC(=O)O)[C@H]21 [Pravastatin, pravastatin]
OR (marker rs1068705, pravastatin vs placebo): 0.74
OR (marker rs1564078, pravastatin vs placebo): 0.79
OR (marker rs9557509, pravastatin vs placebo): 1.42
OR (marker rs10802865, pravastatin vs placebo): 1.16
OR (marker rs11668038, pravastatin vs placebo): 1.25
OR (marker rs17035071, pravastatin vs placebo): 1.22
